Tests used:
Format in all cases: cell-based
[1] = target: T1, CSF1R (colony-stimulating factor 1 receptor) (Mus musculus, UniProt P09581); assay: Western blot of CSF1R signaling in RAW264 cells with and without drug removal (reference CSF1R inhibitor)
T1 sequence (P09581 20-977): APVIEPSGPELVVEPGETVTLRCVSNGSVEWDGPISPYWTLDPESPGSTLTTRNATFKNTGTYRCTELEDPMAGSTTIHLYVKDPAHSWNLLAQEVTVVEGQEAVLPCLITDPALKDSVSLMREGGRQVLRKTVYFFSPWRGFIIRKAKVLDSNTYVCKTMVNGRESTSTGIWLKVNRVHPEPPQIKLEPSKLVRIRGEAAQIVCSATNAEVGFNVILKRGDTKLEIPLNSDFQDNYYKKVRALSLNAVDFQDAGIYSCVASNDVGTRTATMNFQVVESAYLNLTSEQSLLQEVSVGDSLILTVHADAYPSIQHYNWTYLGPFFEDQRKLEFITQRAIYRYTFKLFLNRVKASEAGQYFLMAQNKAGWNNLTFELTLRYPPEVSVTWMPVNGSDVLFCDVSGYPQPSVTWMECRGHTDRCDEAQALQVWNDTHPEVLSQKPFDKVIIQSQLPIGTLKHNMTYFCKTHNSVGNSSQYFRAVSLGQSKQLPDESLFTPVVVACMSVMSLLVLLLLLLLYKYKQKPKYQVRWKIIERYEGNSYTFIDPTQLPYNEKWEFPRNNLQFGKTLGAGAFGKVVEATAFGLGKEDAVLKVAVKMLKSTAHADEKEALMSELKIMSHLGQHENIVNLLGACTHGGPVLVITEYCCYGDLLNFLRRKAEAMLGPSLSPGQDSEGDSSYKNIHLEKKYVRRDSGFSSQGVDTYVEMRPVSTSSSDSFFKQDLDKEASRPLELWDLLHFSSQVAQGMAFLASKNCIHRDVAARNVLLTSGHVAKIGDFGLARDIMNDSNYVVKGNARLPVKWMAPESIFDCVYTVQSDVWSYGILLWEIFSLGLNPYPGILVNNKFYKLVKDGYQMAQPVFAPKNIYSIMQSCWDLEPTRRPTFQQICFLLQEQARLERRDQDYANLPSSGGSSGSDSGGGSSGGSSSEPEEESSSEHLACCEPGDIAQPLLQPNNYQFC

[2] = target: T1, CSF1R (colony-stimulating factor 1 receptor); assay: Western blot of M-CSF-induced CSF1R phosphorylation in murine BMDMs and RAW264 cells; inhibition persists after drug washout
[3] = target: CSF1R (colony-stimulating factor 1 receptor) (Homo sapiens, UniProt P07333); assay: Western blot of M-CSF-induced CSF1R phosphorylation in human monocyte-derived macrophages
CSF1R (colony-stimulating factor 1 receptor) (Homo sapiens, UniProt P07333), sequence (P07333 20-972): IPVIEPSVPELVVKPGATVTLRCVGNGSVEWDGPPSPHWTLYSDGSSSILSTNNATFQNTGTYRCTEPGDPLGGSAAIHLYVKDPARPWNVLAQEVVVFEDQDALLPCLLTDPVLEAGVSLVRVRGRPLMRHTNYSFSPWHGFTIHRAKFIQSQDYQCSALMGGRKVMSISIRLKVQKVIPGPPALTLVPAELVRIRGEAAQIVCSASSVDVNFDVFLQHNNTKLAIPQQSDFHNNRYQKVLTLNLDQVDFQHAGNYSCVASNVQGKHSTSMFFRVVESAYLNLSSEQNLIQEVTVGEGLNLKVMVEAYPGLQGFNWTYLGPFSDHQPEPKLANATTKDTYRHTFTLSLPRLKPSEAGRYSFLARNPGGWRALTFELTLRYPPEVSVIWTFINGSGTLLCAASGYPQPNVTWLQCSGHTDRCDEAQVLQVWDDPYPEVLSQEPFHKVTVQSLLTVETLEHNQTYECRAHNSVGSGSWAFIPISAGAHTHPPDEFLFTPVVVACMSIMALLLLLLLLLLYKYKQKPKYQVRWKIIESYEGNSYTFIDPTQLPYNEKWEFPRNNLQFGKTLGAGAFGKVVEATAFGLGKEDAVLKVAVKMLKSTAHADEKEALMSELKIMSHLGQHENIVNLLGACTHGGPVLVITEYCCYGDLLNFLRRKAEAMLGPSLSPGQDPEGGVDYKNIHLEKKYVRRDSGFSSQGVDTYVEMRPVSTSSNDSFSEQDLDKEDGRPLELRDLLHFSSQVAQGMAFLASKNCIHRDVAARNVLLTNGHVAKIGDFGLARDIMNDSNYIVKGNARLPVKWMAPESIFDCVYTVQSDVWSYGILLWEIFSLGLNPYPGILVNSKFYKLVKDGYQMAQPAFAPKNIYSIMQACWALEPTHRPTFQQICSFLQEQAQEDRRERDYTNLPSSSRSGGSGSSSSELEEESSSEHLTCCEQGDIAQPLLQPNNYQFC

| SMILES | Western blot of CSF1R signaling in RAW264 cells with and without drug removal (r) [1] | Western blot of M-CSF-induced CSF1R phosphorylation in murine BMDMs and RAW264 c [2] | Western blot of M-CSF-induced CSF1R phosphorylation in human monocyte-derived ma [3] |
| --- | --- | --- | --- |
| CNC(=O)c1cc(Oc2ccc3nc(N[C@@H]4CCCC[C@H]4O)sc3c2)ccn1 [BLZ945] | the inhibitory activity of BLZ945, another CSF1R inhibitor with an IC50 comparable to that of FF-10101, decreased upon drug removal |  |  |
| CCCNc1nc(Nc2ccc(C#N)cc2)ncc1C#CCCCNC(=O)[C@H](C)N(C)C(=O)/C=C/CN(C)C [FF-10101] |  | upon reexposure to M-CSF was markedly inhibited by FF-10101 in a dose-dependent manner | human monocyte-derived macrophages upon reexposure to M-CSF was markedly inhibited by FF-10101 in a dose-dependent manner |
